Measurements reported in patent US5668133A, “Ophthalmic compositions comprising emedastine and methods for their use” (priority 1995, dated 1997).

Tested on: passive anaphylaxis in guinea pig conjunctiva
Assay: passive conjunctival anaphylaxis, topical ocular antigen challenge, clinical scoring
Format: in vivo
Experimental: Emedastine difumarate was evaluated for its ability to inhibit a passive conjunctival immediate hypersensitivity response following topical ocular administration.
Guinea pigs (5-8/group) were passively sensitized with anti-ovalbumin serum injected subconjunctivally in one eye. Twenty-four hours after passive sensitization, ovalbumin (OA) was administered either i.v. or topically to the eye.
For assessment of the allergic response following topical ocular antigen challenge, 20 μL of ovalbumin (1.0 wt %) was administered to the sensitized eye 5 minutes after topical ocular application of emedastine difumarate or saline (20 μL). Thirty minutes later, the reaction was quantitated, using the following scoring scheme (maximum score per animal=10):
Congestion (refers to palpebral and bulbar conjunctiva):
3--Dark red conjunctiva; petechiae present
1--Any swelling on lower lid only
2--Swelling upper and lower lid, lids partially closed
3--Lids everted, very swollen, lids at least half closed
4--Swelling of both lids and side of face
1--Glazed, glassy appearance
2--Moist lids and surrounding hair
3--Moist lids and surrounding hair, thicker mucous-like

[1] = topical ocular antigen challenge, 5 min before challenge

## CCOCCn1c(N2CCCN(C)CC2)nc2ccccc21 [Emedastine Difumarate, 1-(2-ethoxyethyl)-2-(4-methyl-1-homopiperazinyl)-benzimidazole]
5 minutes before topical ocular antigen challenge
  reduction in severity of the hypersensitivity response: concentration-dependent reductions in the severity of the hypersensitivity response
Concentrations ranging from 0.0001% to 0.1%
  attenuation of the hypersensitivity response: Significant attenuation
Topical ocular antigen challenge, 0.0001 wt %, 5 min before challenge
  % Change: -29%
Topical ocular antigen challenge, 0.001 wt %, 5 min before challenge
  % Change: -45%
Topical ocular antigen challenge, 0.01 wt %, 5 min before challenge
  % Change: -51%
Topical ocular antigen challenge, 0.1 wt %, 5 min before challenge
  % Change: -67%
[1]
  ED50: 0.0046 wt %
  ED50 (text): 0.0046%
